According to PubChem BioAssay AID1963851 (Molecular Pharmacology Branch, DTP, NCI, 2024):

Tested on: 188146-221-R-J1-PDC complex spheroid viability
Assay: Anticancer human tumor 188146-221-R-J1-PDC patient-derived colon adenocarcinoma cell line growth inhibition [POLQ]
Settings: for IC50: curve of first compound; for viability, T/C: stronger effect = lower value
Procedure, shortened: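 PDC + HUVEC + MSC complex spheroids; POLQ inhibitors ± partner drugs; top conc. at/near clinical Cmax, else 10 microM (SN-38 1 microM), half-log dilutions; 37 degrees C, 5% CO2.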

[1] = second compound 0.0316 µM, first compound 0.0316 µM
[2] = second compound 0.0316 µM, first compound 0.1 µM
[3] = second compound 0.0316 µM, first compound 0.316 µM
[4] = second compound 0.0316 µM, first compound 1 µM
[5] = second compound 0.0316 µM, first compound 3.16 µM
[6] = second compound 0.0316 µM, first compound 10 µM
[7] = second compound 0.1 µM, first compound 0.0316 µM
[8] = second compound 0.1 µM, first compound 0.1 µM
[9] = second compound 0.1 µM, first compound 0.316 µM
[10] = second compound 0.1 µM, first compound 1 µM
[11] = second compound 0.1 µM, first compound 3.16 µM
[12] = second compound 0.1 µM, first compound 10 µM
[13] = second compound 0.316 µM, first compound 0.0316 µM
[14] = second compound 0.316 µM, first compound 0.1 µM
[15] = second compound 0.316 µM, first compound 0.316 µM
[16] = second compound 0.316 µM, first compound 1 µM
[17] = second compound 0.316 µM, first compound 3.16 µM
[18] = second compound 0.316 µM, first compound 10 µM
[19] = second compound 1 µM, first compound 0.0316 µM
[20] = second compound 1 µM, first compound 0.1 µM
[21] = second compound 1 µM, first compound 0.316 µM
[22] = second compound 1 µM, first compound 1 µM
[23] = second compound 1 µM, first compound 3.16 µM
[24] = second compound 1 µM, first compound 10 µM
[25] = second compound 3.16 µM, first compound 0.0316 µM
[26] = second compound 3.16 µM, first compound 0.1 µM
[27] = second compound 3.16 µM, first compound 0.316 µM
[28] = second compound 3.16 µM, first compound 1 µM
[29] = second compound 3.16 µM, first compound 3.16 µM
[30] = second compound 3.16 µM, first compound 10 µM
[31] = second compound 10 µM, first compound 0.0316 µM
[32] = second compound 10 µM, first compound 0.1 µM
[33] = second compound 10 µM, first compound 0.316 µM
[34] = second compound 10 µM, first compound 1 µM
[35] = second compound 10 µM, first compound 3.16 µM
[36] = second compound 10 µM, first compound 10 µM
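Note: spheroids exposed to compounds for seven days.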
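Throughout, for viability, T/C: 100% = DMSO vehicle control viability.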

## CC1COCCN1c1cc(C2(S(C)(=N)=O)CC2)nc(-c2ccnc3[nH]ccc23)n1 (stereo not drawn) + Cc1cccc(N(C)C(=O)C2C(O)CCN2c2nc(C)cc(C(F)(F)F)c2C#N)c1
Second compound 0.0316 µM
  IC50: 4.9 µM
Second compound 0.1 µM
  IC50: 4.65 µM
Second compound 0.316 µM
  IC50: 5.33 µM
Second compound 1 µM
  IC50: 4.36 µM
Second compound 3.16 µM
  IC50: 4.9 µM
Second compound 10 µM
  IC50: 3.21 µM
[1]
  viability, T/C: 108%
[2]
  viability, T/C: 92.9%
[3]
  viability, T/C: 97.6%
[4]
  viability, T/C: 95.7%
[5]
  viability, T/C: 65.2%
[6]
  viability, T/C: 25.1%
[7]
  viability, T/C: 114%
[8]
  viability, T/C: 98.3%
[9]
  viability, T/C: 93.9%
[10]
  viability, T/C: 89.1%
[11]
  viability, T/C: 58.7%
[12]
  viability, T/C: 27.7%
[13]
  viability, T/C: 98.4%
[14]
  viability, T/C: 96.9%
[15]
  viability, T/C: 97.9%
[16]
  viability, T/C: 90.2%
[17]
  viability, T/C: 68.5%
[18]
  viability, T/C: 27.8%
[19]
  viability, T/C: 101%
[20]
  viability, T/C: 91%
[21]
  viability, T/C: 95.7%
[22]
  viability, T/C: 91.4%
[23]
  viability, T/C: 58.2%
[24]
  viability, T/C: 28.9%
[25]
  viability, T/C: 88.5%
[26]
  viability, T/C: 103%
[27]
  viability, T/C: 81.4%
[28]
  viability, T/C: 83.8%
[29]
  viability, T/C: 63.8%
[30]
  viability, T/C: 27.2%
[31]
  viability, T/C: 90%
[32]
  viability, T/C: 78.5%
[33]
  viability, T/C: 88.8%
[34]
  viability, T/C: 62%
[35]
  viability, T/C: 53.2%
[36]
  viability, T/C: 19.4%

## COc1cc2cc(C(=O)CCC(=O)O)sc2cc1OC + COC1C(OC(N)=O)C(O)C(Oc2ccc3c(O)c(NC(=O)c4ccc(O)c(CC=C(C)C)c4)c(=O)oc3c2C)OC1(C)C
Second compound 0.0316 µM
  IC50: > 10 µM
Second compound 0.1 µM
  IC50: > 10 µM
Second compound 0.316 µM
  IC50: > 10 µM
Second compound 1 µM
  IC50: > 10 µM
Second compound 3.16 µM
  IC50: > 10 µM
Second compound 10 µM
  IC50: > 10 µM
[1]
  viability, T/C: 108%
[2]
  viability, T/C: 107%
[3]
  viability, T/C: 107%
[4]
  viability, T/C: 111%
[5]
  viability, T/C: 107%
[6]
  viability, T/C: 98%
[7]
  viability, T/C: 105%
[8]
  viability, T/C: 98.3%
[9]
  viability, T/C: 99.9%
[10]
  viability, T/C: 99.8%
[11]
  viability, T/C: 92.9%
[12]
  viability, T/C: 98.3%
[13]
  viability, T/C: 103%
[14]
  viability, T/C: 107%
[15]
  viability, T/C: 99.7%
[16]
  viability, T/C: 94.9%
[17]
  viability, T/C: 95.6%
[18]
  viability, T/C: 93%
[19]
  viability, T/C: 101%
[20]
  viability, T/C: 96.8%
[21]
  viability, T/C: 83.6%
[22]
  viability, T/C: 100%
[23]
  viability, T/C: 101%
[24]
  viability, T/C: 101%
[25]
  viability, T/C: 102%
[26]
  viability, T/C: 94.1%
[27]
  viability, T/C: 95.7%
[28]
  viability, T/C: 84.3%
[29]
  viability, T/C: 114%
[30]
  viability, T/C: 108%
[31]
  viability, T/C: 105%
[32]
  viability, T/C: 92%
[33]
  viability, T/C: 108%
[34]
  viability, T/C: 101%
[35]
  viability, T/C: 111%
[36]
  viability, T/C: 109%

## Nc1ccn(C2OC(CO)C(O)C2(F)F)c(=O)n1 (stereo not drawn) + Cc1cccc(N(C)C(=O)C2C(O)CCN2c2nc(C)cc(C(F)(F)F)c2C#N)c1
Second compound 0.0316 µM
  IC50: < 0.0316 µM
Second compound 0.1 µM
  IC50: < 0.0316 µM
Second compound 0.316 µM
  IC50: < 0.0316 µM
Second compound 1 µM
  IC50: < 0.0316 µM
Second compound 3.16 µM
  IC50: < 0.0316 µM
Second compound 10 µM
  IC50: < 0.0316 µM
[1]
  viability, T/C: 35.5%
[2]
  viability, T/C: 20.8%
[3]
  viability, T/C: 14.7%
[4]
  viability, T/C: 18.1%
[5]
  viability, T/C: 17.1%
[6]
  viability, T/C: 10.2%
[7]
  viability, T/C: 41%
[8]
  viability, T/C: 23.8%
[9]
  viability, T/C: 15.2%
[10]
  viability, T/C: 15.9%
[11]
  viability, T/C: 14.9%
[12]
  viability, T/C: 11.3%
[13]
  viability, T/C: 31.9%
[14]
  viability, T/C: 20.5%
[15]
  viability, T/C: 14.2%
[16]
  viability, T/C: 15%
[17]
  viability, T/C: 16.9%
[18]
  viability, T/C: 14.1%
[19]
  viability, T/C: 28.1%
[20]
  viability, T/C: 25.9%
[21]
  viability, T/C: 20.2%
[22]
  viability, T/C: 16.2%
[23]
  viability, T/C: 14.3%
[24]
  viability, T/C: 10.8%
[25]
  viability, T/C: 24.6%
[26]
  viability, T/C: 22.5%
[27]
  viability, T/C: 15.8%
[28]
  viability, T/C: 16.5%
[29]
  viability, T/C: 17.8%
[30]
  viability, T/C: 11.1%
[31]
  viability, T/C: 31.1%
[32]
  viability, T/C: 19.1%
[33]
  viability, T/C: 20.3%
[34]
  viability, T/C: 22%
[35]
  viability, T/C: 20.5%
[36]
  viability, T/C: 11.4%

## C=CC(=O)N1CCN(c2nc(=O)n(-c3c(C)ccnc3C(C)C)c3nc(-c4c(O)cccc4F)c(F)cc23)C(C)C1 (stereo not drawn) + Nc1ccc(C#CCN(C(=O)Cc2ncc(C(F)(F)F)cc2C(F)(F)F)c2ccc(F)cc2)nn1
Second compound 0.0316 µM
  IC50: > 10 µM
Second compound 0.1 µM
  IC50: > 10 µM
Second compound 0.316 µM
  IC50: > 10 µM
Second compound 1 µM
  IC50: > 10 µM
Second compound 3.16 µM
  IC50: > 10 µM
Second compound 10 µM
  IC50: > 10 µM
[1]
  viability, T/C: 104%
[2]
  viability, T/C: 107%
[3]
  viability, T/C: 103%
[4]
  viability, T/C: 96.5%
[5]
  viability, T/C: 104%
[6]
  viability, T/C: 84.9%
[7]
  viability, T/C: 95.7%
[8]
  viability, T/C: 108%
[9]
  viability, T/C: 101%
[10]
  viability, T/C: 102%
[11]
  viability, T/C: 120%
[12]
  viability, T/C: 85.6%
[13]
  viability, T/C: 104%
[14]
  viability, T/C: 99.2%
[15]
  viability, T/C: 109%
[16]
  viability, T/C: 82.2%
[17]
  viability, T/C: 104%
[18]
  viability, T/C: 78%
[19]
  viability, T/C: 108%
[20]
  viability, T/C: 91.6%
[21]
  viability, T/C: 92.6%
[22]
  viability, T/C: 113%
[23]
  viability, T/C: 97.4%
[24]
  viability, T/C: 103%
[25]
  viability, T/C: 96.8%
[26]
  viability, T/C: 108%
[27]
  viability, T/C: 92.4%
[28]
  viability, T/C: 104%
[29]
  viability, T/C: 97.5%
[30]
  viability, T/C: 101%
[31]
  viability, T/C: 101%
[32]
  viability, T/C: 104%
[33]
  viability, T/C: 107%
[34]
  viability, T/C: 107%
[35]
  viability, T/C: 98.1%
[36]
  viability, T/C: 96.4%
